Several values for one entry are separate records, joined by “and”; a condition that tells them apart may be missing. Equal entries are not always repeated.

The test concerns the target canine TRPM8 (Canis lupus familiaris, UniProt Q1A7N1). Put plainly: In Vitro Canine TRPM8 Functional Assay (intracellular Ca2+ fluorescence, icilin challenge). Format: cell-based. To be noted: HEK293 cells stably expressing canine TRPM8; for inhibition at 0.2 µM: HEK293, @ 0.2 μM, read-out: % Inh (%) @ 0.2 μM; for IC50: icilin at ~80% maximal response. The method, then: The functional activity of compounds of the formula (I) was determined by measuring changes in intracellular calcium concentration using a Ca^2+-sensitive fluorescent dye. The changes in fluorescent signal were monitored by a fluorescence plate reader, either a FLIPR™ (Molecular Devices) or FDSS (Hamamatsu).
At 24 hrs prior to assay, HEK293 cells stably expressing canine TRPM8 were seeded in culture medium in black wall, clear-base poly-D-lysine coated 384-well plates (BD Biosciences, NJ, USA) and grown overnight in 5% CO2 at 37° C. On assay day, growth media was removed and cells were loaded with Calcium 3 Dye (Molecular Devices) for 35 min at 37° C., under 5% CO2 and then for 25 min at room temperature and atmosphere. Subsequently, cells were tested for agonist-induced increases in intracellular Ca^2+ levels using FLIPR™ or FDSS. Cells were challenged with a compound of the Formula (I) (at varying concentrations) and intracellular Ca^2+ was measured for 5 min prior to the addition of icilin to all wells to achieve a final concentration that produces approximately an 80% maximal response. EC50 or IC50 values for compounds of the present invention were determined from eight-point dose-response studies. Curves were generated using the average of quadruplicate wells for each data point.

Sequence of canine TRPM8 (Q1A7N1 1-1104): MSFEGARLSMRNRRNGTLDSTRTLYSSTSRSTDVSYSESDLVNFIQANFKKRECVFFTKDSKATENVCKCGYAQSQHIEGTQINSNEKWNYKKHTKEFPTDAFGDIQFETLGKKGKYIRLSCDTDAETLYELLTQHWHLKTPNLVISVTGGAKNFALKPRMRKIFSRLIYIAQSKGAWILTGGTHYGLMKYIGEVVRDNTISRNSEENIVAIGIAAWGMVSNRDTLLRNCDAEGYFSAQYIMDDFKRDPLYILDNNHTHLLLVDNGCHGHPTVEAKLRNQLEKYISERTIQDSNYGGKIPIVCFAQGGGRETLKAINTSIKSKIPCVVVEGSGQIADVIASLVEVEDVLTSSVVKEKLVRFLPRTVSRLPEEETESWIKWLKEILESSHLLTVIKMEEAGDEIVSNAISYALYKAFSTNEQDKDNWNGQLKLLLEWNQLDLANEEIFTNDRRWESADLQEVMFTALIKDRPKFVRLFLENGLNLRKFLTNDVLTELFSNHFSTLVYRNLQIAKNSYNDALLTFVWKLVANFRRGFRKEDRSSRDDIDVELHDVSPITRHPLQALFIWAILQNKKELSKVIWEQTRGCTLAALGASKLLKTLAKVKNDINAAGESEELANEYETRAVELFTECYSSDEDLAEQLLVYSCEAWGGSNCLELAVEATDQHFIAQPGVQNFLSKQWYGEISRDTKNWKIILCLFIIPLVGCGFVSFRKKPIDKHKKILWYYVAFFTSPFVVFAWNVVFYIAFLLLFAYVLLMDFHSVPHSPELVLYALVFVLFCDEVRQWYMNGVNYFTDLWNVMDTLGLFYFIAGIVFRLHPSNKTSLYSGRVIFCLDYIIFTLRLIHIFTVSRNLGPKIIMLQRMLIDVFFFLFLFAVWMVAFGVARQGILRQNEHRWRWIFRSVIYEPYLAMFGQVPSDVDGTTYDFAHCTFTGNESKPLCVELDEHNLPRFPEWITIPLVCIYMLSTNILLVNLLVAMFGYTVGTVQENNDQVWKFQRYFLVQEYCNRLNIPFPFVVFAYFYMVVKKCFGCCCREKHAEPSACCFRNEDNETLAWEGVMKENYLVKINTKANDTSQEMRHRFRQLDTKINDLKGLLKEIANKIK

Turning to `O=S(=O)(c1ccc(-n2cccn2)cc1)N(Cc1ccc(F)c(C(F)(F)F)c1)c1nc2ccccn2c1Cl` [Compound 95], the inhibition at 0.2 µM was 99% and the IC50 stood at 7 nM. The matching figures for `O=S(=O)(c1ccc(-n2cccn2)cc1)N(Cc1cccc(C(F)(F)F)c1)c1nc2ccccn2c1Cl` [Compound 99]: 99% and 15.1 nM. `Cc1cccn2c(C)c(N(Cc3ccc(C(F)(F)F)c(F)c3)S(=O)(=O)c3ccccc3)nc12` [Compound 32]: the inhibition at 0.2 µM was 100% and inhibition was half-maximal at 12.5 nM (IC50). The matching figures for `Cc1ccn2c(C)c(N(Cc3ccc(F)c(C(F)(F)F)c3)S(=O)(=O)c3ccc(Br)cc3)nc2c1` [Compound 42]: 99% and 25.4 nM.

Consider `O=S(=O)(c1ccc(N2CCOCC2)nc1)N(Cc1ccc(OC(F)(F)F)cc1)c1nc2ccccn2c1Cl` [Compound 92], for which the inhibition at 0.2 µM was determined as 99% and the IC50 was determined as 25 nM.

Turning to `O=S(=O)(c1ccc(N2CCOCC2)nc1)N(Cc1ccc(F)c(C(F)(F)F)c1)c1nc2ccccn2c1Br` [Compound 86], the inhibition at 0.2 µM came to 99% and the IC50 came to 10.7 nM. As to `Cc1c(N(Cc2ccc(C(F)(F)F)c(F)c2)S(=O)(=O)c2ccccc2)nc2ccc(F)cn12` [Compound 21], the IC50 is 10.6 nM and 12.4 nM.

`Cc1c(N(Cc2ccc(F)c(C(F)(F)F)c2)S(=O)(=O)c2ccccc2)nc2cc(Cl)ccn12` [Compound 15] returned an IC50 of 16 nM.

With `Cc1ccc2nc(N(Cc3ccc(C(F)(F)F)c(F)c3)S(=O)(=O)c3ccccc3)c(C)n2c1` [Compound 41], the inhibition at 0.2 µM is 100% and it took 25.3 nM to reach half-maximal inhibition (IC50). Regarding `Cc1cccc2nc(N(Cc3ccc(C(F)(F)F)c(F)c3)S(=O)(=O)c3ccccc3)c(C)n12` [Compound 49], the inhibition at 0.2 µM worked out at 99% and it took 13.3 nM to reach half-maximal inhibition (IC50). With `Cc1c(N(Cc2ccc(F)c(C(F)(F)F)c2)S(=O)(=O)c2ccccc2)nc2ccc(F)cn12` [Compound 20], the IC50 stood at 10.1 nM.

With `Cc1cccn2c(C)c(N(Cc3ccc(C(F)(F)F)cc3)S(=O)(=O)c3ccccc3)nc12` [Compound 33], the inhibition at 0.2 µM was found to be 99% and half-maximal inhibition (IC50) was put at 26.7 nM. The matching figures for `Cc1ccn2c(C)c(N(Cc3ccc(F)c(C(F)(F)F)c3)S(=O)(=O)c3ccccc3)nc2c1` [Compound 28]: 100% and 8.01 nM. The matching figures for `CCc1c(N(CC2CC2)S(=O)(=O)c2ccccc2)nc2c(C(F)(F)F)cccn12` [Compound 65]: 72% and 62.8 nM. For `COC(=O)c1ccc(S(=O)(=O)N(Cc2ccc(F)c(C(F)(F)F)c2)c2nc3ccc(Cl)cn3c2C)cc1` [Compound 112], in that order: 83% and 82.1 nM.

As to `O=S(=O)(c1ccc(-n2cccn2)cc1)N(Cc1ccc(C(F)(F)F)c(F)c1)c1nc2ccccn2c1Cl` [Compound 96], the inhibition at 0.2 µM stood at 100% and inhibition was half-maximal at 5.5 nM (IC50). The matching figures for `O=S(=O)(c1ccc(N2CCOCC2)nc1)N(Cc1ccc(F)c(C(F)(F)F)c1)c1nc2ccccn2c1Cl` [Compound 90, N-(3-Chloroimidazo[1,2-a]pyridin-2-yl)-N-(4-fluoro-3-trifluoromethylbenzyl)-6-morpholin-4-yl-pyridine-3-sulfonamide]: 99% and 26.9 nM.

`CCc1c(N(Cc2ccc(C(F)(F)F)c(F)c2)S(=O)(=O)c2ccc(N3CCOCC3)nc2)nc2ccc(Cl)cn12` [Compound 87]: the inhibition at 0.2 µM was determined as 86% and 86.3 nM corresponded to half-maximal inhibition (IC50).

For the compound `O=S(=O)(c1ccccc1)N(Cc1ccc(F)c(C(F)(F)F)c1)c1nc2ccc(C(F)(F)F)cn2c1Cl` [Compound 62], the inhibition at 0.2 µM was found to be 56%. The same measure, in the same setting: the same measure for `O=S(=O)(c1ccccc1)N(Cc1ccc(OC(F)(F)F)cc1)c1nc2ccc(C(F)(F)F)cn2c1Cl` [Compound 61]: 47%.

For orientation: IC50 means the midpoint of a concentration-inhibition curve. A lower IC50 goes with inhibition by little substance.

Values taken from US9067935B2 (Janssen Pharmaceutica, NV, priority 2010, dated 2015).
